Legend:
hMAO-A = biological target: T1, hMAO-A (Homo sapiens, UniProt P21397); details: read-out: IC50 hMAO-A; cited from earlier work
T1 sequence (P21397 1-527): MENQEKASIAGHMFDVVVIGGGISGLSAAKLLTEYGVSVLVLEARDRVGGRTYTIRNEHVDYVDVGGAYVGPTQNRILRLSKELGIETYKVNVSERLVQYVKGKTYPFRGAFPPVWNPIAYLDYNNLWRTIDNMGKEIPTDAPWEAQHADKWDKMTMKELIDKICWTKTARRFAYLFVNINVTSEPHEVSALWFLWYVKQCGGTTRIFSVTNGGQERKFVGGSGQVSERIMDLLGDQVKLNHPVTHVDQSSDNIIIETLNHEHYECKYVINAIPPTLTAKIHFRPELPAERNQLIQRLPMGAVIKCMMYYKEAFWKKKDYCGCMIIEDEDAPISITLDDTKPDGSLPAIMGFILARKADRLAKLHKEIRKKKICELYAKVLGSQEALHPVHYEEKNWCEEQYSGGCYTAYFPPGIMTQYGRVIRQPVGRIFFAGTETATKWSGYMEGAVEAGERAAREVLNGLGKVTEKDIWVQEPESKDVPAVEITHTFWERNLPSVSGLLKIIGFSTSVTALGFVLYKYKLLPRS

hMAO-B = biological target: T2, hMAO-B (Homo sapiens, UniProt P27338); details: read-out: IC50 hMAO-B; cited from earlier work
T2 sequence (P27338 1-520): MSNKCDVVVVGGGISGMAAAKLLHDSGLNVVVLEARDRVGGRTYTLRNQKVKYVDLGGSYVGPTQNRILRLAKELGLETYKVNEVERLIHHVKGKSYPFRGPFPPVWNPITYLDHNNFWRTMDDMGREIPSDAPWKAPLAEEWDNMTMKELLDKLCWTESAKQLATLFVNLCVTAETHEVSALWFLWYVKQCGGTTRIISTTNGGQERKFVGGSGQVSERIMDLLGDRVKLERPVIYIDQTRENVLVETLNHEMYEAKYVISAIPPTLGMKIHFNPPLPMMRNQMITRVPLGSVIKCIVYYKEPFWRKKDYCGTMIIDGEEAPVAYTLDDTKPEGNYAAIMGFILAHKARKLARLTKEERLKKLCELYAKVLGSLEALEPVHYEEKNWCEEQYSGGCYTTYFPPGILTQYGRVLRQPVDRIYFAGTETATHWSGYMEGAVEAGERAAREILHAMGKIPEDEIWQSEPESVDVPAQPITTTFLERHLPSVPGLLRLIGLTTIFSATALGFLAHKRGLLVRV

[1] = Phase 1 study of compound (2) with ethanol: pharmacokinetics of compound (1) and breath alcohol
Text: Plasma concentrations of compound (1) and BrAC were summarized and listed by treatment, subject and timepoint. Pharmacokinetic parameters derived for compound (1) were also summarized and listed by treatment and subject. Pharmacokinetic parameters were estimated using a non-compartmental approach with a log-linear terminal phase assumption. The trapezoidal rule was used to estimate the area under the curve (linear trapezoidal linear interpolation) and the terminal phase will be estimated by maximizing the coefficient of determination estimated from the log-linear regression model. However, AUC0-∞, AUClast/∞, λz and t1/2 parameters were to be estimated for individual concentration-time profiles only when the terminal log-linear phase could be reliably characterized.
Proportionality analysis was done using a power model. The power model was defined as: […]
A linear model with ln-transformed dose as a continuous effect was fitted. A point estimate and a 90% CI was derived for the slope (β). The parameter could be considered to be dose proportional if the 90% confidence interval of the slope β was within [1+ln(0.8)/ln(r), 1+ln(1.25)/ln(r)], where r=the highest dose studied/the lowest dose (Smith et al., “Confidence interval criteria for assessment of dose proportionality.” Pharm Res. 17 (10):1278-83 (2000)).

[2] = system: alcohol-consuming patient population; details: 500 mg/day DSF; cited from earlier work

Compound | IC50 (hMAO-A) [µM] | IC50 (hMAO-B) [µM] | further results
Cc1cccc(C)c1C(=O)NCc1ccc(-c2cc[nH]c(=O)c2)cc1 [(6), 2,6-dimethyl-N-(4-(2-oxo-1,2-dihydropyridin-4-yl)benzyl)benzamide] | > 130 | > 130 | –
Cc1cccc(Cl)c1C(=O)NCc1ccc(-c2cc[nH]c(=O)c2)cc1 [(5), 2-chloro-6-methyl-N-(4-(2-oxo-1,2-dihydropyridin-4-yl)benzyl)benzamide] | > 130 | > 130 | –
Cc1cc(-c2ccc(CNC(=O)c3c(Cl)cccc3Cl)cc2)cc(=O)[nH]1 [(7), 2,6-dichloro-N-[4-(6-methyl-2-oxo-1,2-dihydro-pyridin-4-yl)-benzyl]-benzamide] | > 130 | > 130 | –
O=C(NCc1ccc(-c2cc[nH]c(=O)c2)cc1)c1c(F)ccc(F)c1Cl [(8), 2-chloro-3,6-difluoro-N-(4-(2-oxo-1,2-dihydropyridin-4-yl)benzyl)benzamide] | > 130 | > 130 | –
O=C(NCc1ccc(-c2cc[nH]c(=O)c2)cc1)c1cccc(F)c1Cl [(4), 2-chloro-3-fluoro-N-(4-(2-oxo-1,2-dihydropyridin-4-yl)benzyl)benzamide] | > 130 | > 130 | –
O=C(NCc1ccc(-c2cc[nH]c(=O)c2)cc1)c1c(F)cccc1Cl [(12), 2-chloro-6-fluoro-N-(4-(2-oxo-1,2-dihydropyridin-4-yl)benzyl)benzamide] | > 130 | > 130 | –
Cn1ccc(-c2ccc(CNC(=O)c3c(Cl)cccc3Cl)cc2)cc1=O [(10), 2,6-dichloro-N-(4-(1-methyl-2-oxo-1,2-dihydropyridin-4-yl)benzyl)benzamide] | > 130 | > 130 | –
O=C(NCc1ccc(-c2cc[nH]c(=O)c2)cc1)c1c(Cl)cccc1Cl [Compound (1), 2,6-dichloro-N-[4-(2-oxo-1,2-dihydro-pyridin-4-yl)-benzyl]-benzamide] | > 130 | > 130 | dose proportionality of peak and overall exposure (power model) ([1]; 25 mg to 600 mg dose range): did not increase in a compound (2) dose-proportional manner; peak (Cmax) and overall (AUC) exposure to compound (1) ([1]; following a moderate-fat meal): increased with increasing dose of compound (2); Tmax ([1]; male, human, plasma, po): 3.5 to 5 h; half-life ([1]; male, human, plasma, po): 17 to 27 h
O=C(NCc1ccc(-c2cc[nH]c(=O)c2)cc1)c1c(F)cccc1F [(11), 2,6-difluoro-N-(4-(2-oxo-1,2-dihydropyridin-4-yl)benzyl)benzamide] | > 130 | > 130 | –
COCCOc1cc(Cl)c(C(=O)NCc2ccc(-c3cc[nH]c(=O)c3)cc2)c(Cl)c1 [(3), 2,6-dichloro-4-(2-methoxyethoxy)-N-(4-(2-oxo-1,2-dihydropyridin-4-yl)benzyl)benzamide] | > 130 | > 130 | –
Cc1cc(CNC(=O)c2c(Cl)cccc2Cl)ccc1-c1cc[nH]c(=O)c1 [(9), 2,6-dichloro-N-(3-methyl-4-(2-oxo-1,2-dihydropyridin-4-yl)benzyl)benzamide] | > 130 | > 130 | –
CCN(CC)C(=S)SSC(=S)N(CC)CC [DSF, Disulfuram] | – | – | outcome of safety study [2]: halted prematurely due to severity of DER
O=C(NCc1ccc(-c2cc(=O)[nH]cc2F)cc1)c1c(Cl)cccc1Cl [(14), 2,6-dichloro-N-(4-(5-fluoro-2-oxo-1,2-dihydropyridin-4-yl)benzyl)benzamide] | > 130 | > 130 | –
O=C(NCc1ccc(-c2cc[nH]c(=O)c2)cc1F)c1c(Cl)cccc1Cl [(13), 2,6-dichloro-N-(2-fluoro-4-(2-oxo-1,2-dihydropyridin-4-yl)benzyl)benzamide] | > 130 | > 130 | –
